Experimental data published in ChEMBL document CHEMBL5120761, “Lanicepines A and B, Sesquiterpenes with Amino Acid-Derived Substituents from the Flowering Aerial Parts of Saussurea laniceps” (J Nat Prod, 2022).

Columns and labels:
Microglia = test: Anti-inflammatory activity against mouse Microglia cells assessed as reduction in LPS-induced IL-1beta production; type: functional, cell-based
[1] = Cytotoxicity against mouse Microglia cells assessed as reduction in cell viability; type: toxicity, cell-based

Row | SMILES | IC50 (Microglia) [µM] | CC50 [1] [µM]
1 | C=C1[C@@H]2[C@H]3OC(=O)[C@@H](C)[C@@H]3[C@@H](O)CC(=C)[C@@H]2C[C@@H]1O | 54.2 | > 100
2 | C=C1[C@@H]2[C@H]3OC(=O)[C@@H](CN4C=C(C(N)=O)C[C@@H](CO)C4=O)[C@@H]3[C@@H](O)CC(=C)[C@@H]2C[C@@H]1O | 86.7 | > 100
3 | C=C1[C@@H]2[C@H]3OC(=O)[C@@H](C)[C@@H]3[C@@H](O[C@@H]3O[C@H](CO)[C@@H](O)[C@H](O)[C@H]3O)CC(=C)[C@@H]2C[C@@H]1O | 44.5 | > 100
4 | C=C1[C@@H]2[C@H]3OC(=O)[C@@H](CNC(=O)[C@H](CO)CN4CCC[C@H]4C(=O)O)[C@@H]3[C@@H](O)CC(=C)[C@@H]2C[C@@H]1O | 62.6 | > 100
